Drawing on US8258138B2, “Potassium channel blockers” (Xention Limited, priority 2008, dated 2012), this text covers inhibition for 23 compounds.

In this assay the target is T1, human Kv1.3 (Homo sapiens, UniProt P22001).
T1 construct: expressed in transfected cells; host or cells: stably transfected cells grown in medium for CHO cells
Put plainly: Kv1.3 Autopatch electrophysiology (whole cell patch-clamp, inhibition of charge movement). To be noted: compound at 1 μM; cells stably transfected with human Kv1.3; room temperature; total charge during step to +30 mV relative to control; read-out: hKv1.3 % inh. In kind it is cell-based. How it is done:
Kv1.3 Autopatch Electrophysiology Method
Compounds were tested on these cells using the AutoPatch technology in whole cell mode.
The external bathing solution contained (in mM): 150 NaCl, 10 KCl, 1 MgCl2, 3 CaCl2, 10 HEPES, pH 7.4 with NaOH. Patch pipettes were filled with an electrode solution of composition (in mM): 100 K-Gluconate, 20 KCl, 1 MgCl2, 1 CaCl2, 10 HEPES, 11 EGTA, 5 ATP-Na2, 2 Glutathione pH 7.2 with KOH.
Compounds were dissolved in DMSO (100%) and made up in the external bather at a concentration of 1 μM immediately prior to use. All experiments were conducted at room temperature.
A cell suspension (10 ml), with a density of 6×10^6 cells, was aliquoted into a 15 ml centrifuge tube and stored at 4° C. before use. Prior to use a tube was taken and centrifuged at 1000 rpm for 4 mins at room temperature. The supernatant was then discarded, leaving a cell pellet at the bottom of the tube. The pellet was then resuspended using 1 ml of cold (4° C.), filtered (0.22 μm), 0.05% BSA/bather solution (0.05 g BSA/100 ml bather). The bottom of the tube was manually agitated followed by gentle tituration. The cell suspension was then placed in the AutoPatch™ temperature controlled cell-hotel at 14° C. and regularly titurated.
A length of Teflon capillary tubing was dipped into the cell suspension solution, and a column of fluid was taken up by negative pressure. The column of fluid was in electrically connectivity with a Ag/AgCl reference electrode. Borosilicate glass patch pipettes (from 1.5 mm OD, thin-walled filamented, GC150-TF capillary glass, Harvard) were pulled using a DMZ pipette puller (Zeitz Instruments), and were back-filled using the internal pipette solution, being careful that no bubbles remained at the tip or in the body of the pipette. Patch pipettes typically had resistances of 2.5-3.5 MΩ. Once filled, the pipette tip and a proportion of the shaft (˜15 mm) were dipped into Sigmacote (Sigma). The recording pipettes were placed in a multiwell array and mounted on the AutoPatch™ machine. Automated patch-clamping and drug-application was initiated by the operator, but thereafter AutoPatch.exe continued the experiment providing that pre-set conditions and criteria were satisfied.
Whole cell patch-clamp recordings were made using the AutoPatch™ rig, which incorporated an EPC9 or EPC10 amplifier (HEKA, Germany) under control of Pulse software (v8.54 or v8.76, HEKA, Germany), a cell applicator, automated drug application system (DAS), valve controller (VF1) and a suction device all at room temperature. This equipment was completely under the control of AutoPatch.exe and operator intervention was only made when there was a requirement to refill the bather reservoirs or to prevent the loss of a cell due to a technical error.
Cells were continuously perfused with external solution at a flow rate of ˜2 ml/minute.
Electrophysiology voltage-step protocols and analysis of data was performed as follows. Data were sampled at 5 kHz, and filtered with a −3 dB bandwidth of 2.5 kHz. Cells were held at a voltage of −80 mV. Currents were evoked by a voltage step to +30 mV for 500 ms in duration applied every 15 s. Online analysis of the hKv1.3 current during the application of compounds was performed by the Pulse (v8.54 or v8.76, HEKA, Germany), Excel (Microsoft, USA) and AutoPatch™ software, with the total charge measured during the whole of voltage step. Inhibition of charge movement in the presence of drug was calculated relative to control.

T1 sequence (P22001 whole entry): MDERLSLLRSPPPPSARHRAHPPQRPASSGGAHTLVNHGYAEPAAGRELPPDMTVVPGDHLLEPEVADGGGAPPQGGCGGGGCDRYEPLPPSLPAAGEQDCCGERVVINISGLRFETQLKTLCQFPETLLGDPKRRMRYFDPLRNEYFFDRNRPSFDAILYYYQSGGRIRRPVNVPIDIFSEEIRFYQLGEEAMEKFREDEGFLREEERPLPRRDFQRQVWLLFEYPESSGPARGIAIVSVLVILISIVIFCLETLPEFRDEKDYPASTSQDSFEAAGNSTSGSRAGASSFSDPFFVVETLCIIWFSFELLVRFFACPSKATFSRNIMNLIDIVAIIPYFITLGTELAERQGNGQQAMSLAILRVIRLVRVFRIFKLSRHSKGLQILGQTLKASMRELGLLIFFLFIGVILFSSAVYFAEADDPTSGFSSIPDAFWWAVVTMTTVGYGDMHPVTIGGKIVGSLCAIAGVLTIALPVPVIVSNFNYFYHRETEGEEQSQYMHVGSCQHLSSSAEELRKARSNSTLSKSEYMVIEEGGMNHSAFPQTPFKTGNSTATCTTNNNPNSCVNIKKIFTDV

With `CN(C)S(=O)(=O)N(Cc1ccccc1)c1ccc(C(=O)N2CCOC(c3ccccc3)C2)cc1F` (centres unmarked) [Example 73, N-Benzyl-N-[2-fluoro-4-(2-phenyl-morpholine-4-carbonyl)-phenyl]-N′,N′-dimethylsulfamide], the inhibition at 1 µM was found to be 67%.

Consider `CC1CCCN(C(=O)c2ccc(N(Cc3ccccc3)S(=O)(=O)c3cn(C)cn3)cc2)C1` (centres unmarked) [Example 74, 1-Methyl-1H-imidazole-4-sulfonic acid benzyl-[4-(3-methyl-piperidine-1-carbonyl)-phenyl]-amide], for which the inhibition at 1 µM is 51%.

Consider `Cn1cnc(S(=O)(=O)N(Cc2ccccc2)c2ccc(C(=O)N3CCN(c4ccccc4F)CC3)cc2)c1` [Example 75, 1-Methyl-1H-imidazole-4-sulfonic acid benzyl-{4-[4-(2-fluoro-phenyl)-piperazine-1-carbonyl]-phenyl}-amide], for which the inhibition at 1 µM came out at 64%.

As for `Cn1cnc(S(=O)(=O)N(Cc2ccccc2)c2ccc(C(=O)N3CCN(CC4CCCCC4)CC3)cc2)c1` [Example 76, 1-Methyl-1H-imidazole-4-sulfonic acid benzyl-[4-(4-cyclohexylmethyl-piperazine-1-carbonyl)-phenyl]-amide], the inhibition at 1 µM was 45%.

Turning to `Cn1cnc(S(=O)(=O)N(Cc2ccccc2)c2ccc(C(=O)N3CCN(c4nccs4)CC3)cc2)c1` [Example 77, 1-Methyl-1H-imidazole-4-sulfonic acid benzyl-[4-(4-thiazol-2-yl-piperazine-1-carbonyl)-phenyl]-amide], the inhibition at 1 µM came out at 42%.

In the case of `Cn1cnc(S(=O)(=O)N(Cc2ccccc2)c2ccc(C(=O)N3CCCC(C(F)(F)F)C3)cc2)c1` (centres unmarked) [Example 78, 1-Methyl-1H-imidazole-4-sulfonic acid benzyl-[4-(3-trifluoromethyl-piperidine-1-carbonyl)-phenyl]-amide], the inhibition at 1 µM is 74%.

For the compound `Cn1cnc(S(=O)(=O)N(Cc2ccccc2)c2ccc(C(=O)N3CCC(F)(F)CC3)cc2)c1` [Example 79, 1-Methyl-1H-imidazole-4-sulfonic acid benzyl-[4-(4,4-difluoro-piperidine-1-carbonyl)-phenyl]-amide], the inhibition at 1 µM came out at 60%.

Take `Cn1cnc(S(=O)(=O)N(Cc2ccccc2)c2ccc(C(=O)N3CCCC(F)C3)cc2)c1` (centres unmarked) [Example 80, 1-Methyl-1H-imidazole-4-sulfonic acid benzyl-[4-(3-fluoro-piperidine-1-carbonyl)-phenyl]-amide]: the inhibition at 1 µM worked out at 30%.

As for `Cn1cnc(S(=O)(=O)N(Cc2ccccc2)c2ccc(C(=O)N3CCN(C(=O)OC(C)(C)C)C(c4ccccc4)C3)cc2)c1` (centres unmarked) [Example 81, 4-{4-[Benzyl-(1-methyl-1H-imidazole-4-sulfonyl)-amino]-benzoyl}-2-phenyl-piperazine-1-carboxylic acid tert-butyl ester], the inhibition at 1 µM amounted to 57%.

As for `Cn1cnc(S(=O)(=O)N(Cc2ccccc2)c2ccc(C(=O)N3CCC(c4ccc(F)cc4)C3)cc2)c1` (centres unmarked) [Example 82, 1-Methyl-1H-imidazole-4-sulfonic acid benzyl-{4-[3-(4-fluoro-phenyl)-pyrrolidine-1-carbonyl]-phenyl}-amide], the inhibition at 1 µM turned out to be 78%.

For the compound `CN1CCN(C(=O)c2ccc(N(Cc3ccccc3)S(=O)(=O)c3cn(C)cn3)cc2)CC1c1ccccc1` (centres unmarked) [Example 83, 1-Methyl-1H-imidazole-4-sulfonic acid benzyl-[4-(4-methyl-3-phenyl-piperazine-1-carbonyl)-phenyl]-amide], the inhibition at 1 µM is 64%.

In the case of `Cn1ccc(S(=O)(=O)N(Cc2ccccc2)c2ccc(C(=O)N3CCOC(c4ccccc4)C3)cc2)n1` (centres unmarked) [Example 84, 1-Methyl-1H-pyrazole-3-sulfonic acid benzyl-[4-(2-phenyl-morpholine-4-carbonyl)-phenyl]-amide], the inhibition at 1 µM was found to be 89%.

Turning to `Cn1ccc(S(=O)(=O)N(Cc2ccc(Cl)cc2)c2ccc(C(=O)N3CCCCC3)cc2)n1` [Example 86, 1-Methyl-1H-pyrazole-3-sulfonic acid (4-chloro-benzyl)-[4-(piperidine-1-carbonyl)-phenyl]-amide], the inhibition at 1 µM is 88%.

`Cn1ccc(S(=O)(=O)N(Cc2ccccc2)c2ccc(C(=O)N3CCNC(c4ccccc4)C3)cc2)n1` (centres unmarked) [Example 88, 1-Methyl-1H-pyrazole-3-sulfonic acid benzyl-[4-(3-phenyl-piperazine-1-carbonyl)-phenyl]-amide]: the inhibition at 1 µM stood at 46%.

For `Cn1nccc1S(=O)(=O)N(Cc1ccccc1)c1ccc(C(=O)N2CCNC(c3ccccc3)C2)cc1` (centres unmarked) [Example 89, 2-Methyl-2H-pyrazole-3-sulfonic acid benzyl-[4-(3-phenyl-piperazine-1-carbonyl)-phenyl]-amide], the inhibition at 1 µM worked out at 61%.

As for `CN1CCN(C(=O)c2ccc(N(Cc3ccccc3)S(=O)(=O)c3ccnn3C)cc2)CC1c1ccccc1` (centres unmarked) [Example 91, 2-Methyl-2H-pyrazole-3-sulfonic acid benzyl-[4-(4-methyl-3-phenyl-piperazine-1-carbonyl)-phenyl]-amide], the inhibition at 1 µM was 81%.

For `CC1CCCN(C(=O)c2ccc(N(Cc3ccc(Cl)cc3)S(=O)(=O)c3cn(C)cn3)cc2)C1` (centres unmarked) [Example 92, 1-Methyl-1H-imidazole-4-sulfonic acid (4-chloro-benzyl)-[4-(3-methyl-piperidine-1-carbonyl)-phenyl]-amide], the inhibition at 1 µM was 61%.

Take `CC1CCCN(C(=O)c2ccc(N(Cc3ccc(F)cc3)S(=O)(=O)c3cn(C)cn3)cc2)C1` (centres unmarked) [Example 94, 1-Methyl-1H-imidazole-4-sulfonic acid (4-fluoro-benzyl)-[4-(3-methyl-piperidine-1-carbonyl)-phenyl]-amide]: the inhibition at 1 µM was found to be 52%.

Take `Cc1ccc(CN(c2ccc(C(=O)N3CCCC(C)C3)cc2)S(=O)(=O)c2cn(C)cn2)cc1` (centres unmarked) [Example 95, 1-Methyl-1H-imidazole-4-sulfonic acid (4-methyl-benzyl)-[4-(3-methyl-piperidine-1-carbonyl)-phenyl]-amide]: the inhibition at 1 µM is 51%.

Turning to `Cn1cnc(S(=O)(=O)N(Cc2ccc(Cl)c(Cl)c2)c2ccc(C(=O)N3CCCCC3)cc2)c1` [Example 96, 1-Methyl-1H-imidazole-4-sulfonic acid (3,4-dichloro-benzyl)-[4-(piperidine-1-carbonyl)-phenyl]-amide], the inhibition at 1 µM came to 48%.

`Cn1cnc(S(=O)(=O)N(Cc2ccc(F)c(Cl)c2)c2ccc(C(=O)N3CCCCC3)cc2)c1` [Example 97, 1-Methyl-1H-imidazole-4-sulfonic acid (3-chloro-4-fluoro-benzyl)-[4-(piperidine-1-carbonyl)-phenyl]-amide]: the inhibition at 1 µM was 61%.

Take `CC1CCCN1C(=O)c1ccc(N(Cc2ccc(Cl)cc2)S(=O)(=O)c2cn(C)cn2)cc1` (centres unmarked) [Example 98, 1-Methyl-1H-imidazole-4-sulfonic acid (4-chloro-benzyl)-[4-(2-methyl-pyrrolidine-1-carbonyl)-phenyl]-amide]: the inhibition at 1 µM came out at 51%.

With `CC1CCN(C(=O)c2ccc(N(Cc3ccc(Cl)cc3)S(=O)(=O)c3cn(C)cn3)cc2)C1` (centres unmarked) [Example 99, 1-Methyl-1H-imidazole-4-sulfonic acid (4-chloro-benzyl)-[4-(3-methyl-pyrrolidine-1-carbonyl)-phenyl]-amide], the inhibition at 1 µM was found to be 52%.
